ChEMBL document CHEMBL4433208, “N-Nitrosulfonamides as Carbonic Anhydrase Inhibitors: A Promising Chemotype for Targeting Chagas Disease and Leishmaniasis” (ACS Med Chem Lett, 2019)
Values after ≈ are worked out from the molar mass of the structure shown.

Legend:
Leishmania amazonensis [1] = assay: microbe, parasite or virus in culture; type: functional; conditions: IFLA/BR/1967/PH8, 48 h
Description: Antileishmanial activity against Leishmania amazonensis IFLA/BR/1967/PH8 promastigotes after 48 hrs by resazurin dye based assay

Leishmania infantum [2] = assay: microbe, parasite or virus in culture; type: functional; conditions: MHOM/BR/1974/PP75, 48 h
Description: Antileishmanial activity against Leishmania infantum MHOM/BR/1974/PP75 promastigotes after 48 hrs by resazurin dye based assay

Leishmania amazonensis [3] = assay: microbe, parasite or virus in culture; type: functional, organism-based; conditions: IFLA/BR/1967/PH8, 48 h
Description: Antileishmanial activity against Leishmania amazonensis IFLA/BR/1967/PH8 promastigotes assessed as reduction in parasite viability IFLA/BR/1967/PH8 after 48 hrs by resazurin dye based assay

Leishmania infantum [4] = assay: microbe, parasite or virus in culture; type: functional, organism-based; conditions: MHOM/BR/1974/PP75, 48 h
Description: Antileishmanial activity against Leishmania infantum MHOM/BR/1974/PP75 promastigotes assessed as reduction in parasite viability after 48 hrs by resazurin dye based assay

in vitro [5] = conditions: mouse, RAW264.7 cells
Description: Cytotoxicity against mouse RAW264.7 cells assessed as reduction in cell viability after 48 hrs by MTT assay

Trypanosoma cruzi [6] = assay: microbe, parasite or virus in culture; type: functional; conditions: Dm28c, 48 h
Description: Antitrypanosomal activity against Trypanosoma cruzi Dm28c epimastigotes after 48 hrs by resazurin dye based assay

Trypanosoma cruzi [7] = assay: microbe, parasite or virus in culture; type: functional; conditions: Y
Description: Antitrypanosomal activity against Trypanosoma cruzi Y epimastigotes resazurin dye based assay

in vitro [8] = conditions: chlorocebus sabaeus, Vero cells
Description: Cytotoxicity against African green monkey Vero cells 72 hrs by CellTiter-Glo assay

Row | SMILES | MIC (Leishmania amazonensis [1]) [µM] | MIC (Leishmania infantum [2]) [µM] | IC50 (Leishmania amazonensis [3]) [nM] | IC50 (Leishmania infantum [4]) [nM] | CC50 at 48 h (in vitro [5]) [nM] | MIC (Trypanosoma cruzi [6]) [µM] | MIC (Trypanosoma cruzi [7]) [µM] | CC50 at 72 h (in vitro [8]) [nM]
1 | C[C@@H]1[C@H](O)[C@@H](C)/C=C/C=C/C=C/C=C/C=C/C=C/C=C/[C@H](O[C@@H]2O[C@H](C)[C@@H](O)[C@H](N)[C@@H]2O)C[C@@H]2O[C@](O)(C[C@@H](O)C[C@@H](O)[C@H](O)CC[C@@H](O)C[C@@H](O)CC(=O)O[C@H]1C)C[C@H](O)[C@H]2C(=O)O [AMPHOTERICIN B] | 8 (≈ 7.39 µg/mL) | 8 (≈ 7.39 µg/mL) | 1650 | 1770 | 1000 | – | – | –
2 | O=C(Cn1ccnc1[N+](=O)[O-])NCc1ccccc1 [BENZNIDAZOLE] | – | – | – | – | 138000 | 32 (≈ 8.33 µg/mL) | 32 (≈ 8.33 µg/mL) | > 500000
